Activity calls are given as the source filed them.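 How the source made its calls: active means inhibitor whose half-maximal potency stays within twice the top tested dose in every replicate test; inconclusive means mixed calls across tests, weak flat response, or poor curve fit; inactive means all tests inactive, including rising signal.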

The text below walks through data of PubChem BioAssay AID1117287 (Broad Institute, 2014).

The assay addresses Endoplasmic reticulum aminopeptidase 1 (Homo sapiens) (UniProt Q9NZ08). Description: ERAP1 aminopeptidase inhibitors, dose response, biochemical, fluorescence, dry powder, set 2 (AID 1117287). The conditions noted are these: ERAP1, Leu-AMC fluorescence, 60 min.

Sequence of Endoplasmic reticulum aminopeptidase 1 (Homo sapiens) (Q9NZ08 whole entry, looked up): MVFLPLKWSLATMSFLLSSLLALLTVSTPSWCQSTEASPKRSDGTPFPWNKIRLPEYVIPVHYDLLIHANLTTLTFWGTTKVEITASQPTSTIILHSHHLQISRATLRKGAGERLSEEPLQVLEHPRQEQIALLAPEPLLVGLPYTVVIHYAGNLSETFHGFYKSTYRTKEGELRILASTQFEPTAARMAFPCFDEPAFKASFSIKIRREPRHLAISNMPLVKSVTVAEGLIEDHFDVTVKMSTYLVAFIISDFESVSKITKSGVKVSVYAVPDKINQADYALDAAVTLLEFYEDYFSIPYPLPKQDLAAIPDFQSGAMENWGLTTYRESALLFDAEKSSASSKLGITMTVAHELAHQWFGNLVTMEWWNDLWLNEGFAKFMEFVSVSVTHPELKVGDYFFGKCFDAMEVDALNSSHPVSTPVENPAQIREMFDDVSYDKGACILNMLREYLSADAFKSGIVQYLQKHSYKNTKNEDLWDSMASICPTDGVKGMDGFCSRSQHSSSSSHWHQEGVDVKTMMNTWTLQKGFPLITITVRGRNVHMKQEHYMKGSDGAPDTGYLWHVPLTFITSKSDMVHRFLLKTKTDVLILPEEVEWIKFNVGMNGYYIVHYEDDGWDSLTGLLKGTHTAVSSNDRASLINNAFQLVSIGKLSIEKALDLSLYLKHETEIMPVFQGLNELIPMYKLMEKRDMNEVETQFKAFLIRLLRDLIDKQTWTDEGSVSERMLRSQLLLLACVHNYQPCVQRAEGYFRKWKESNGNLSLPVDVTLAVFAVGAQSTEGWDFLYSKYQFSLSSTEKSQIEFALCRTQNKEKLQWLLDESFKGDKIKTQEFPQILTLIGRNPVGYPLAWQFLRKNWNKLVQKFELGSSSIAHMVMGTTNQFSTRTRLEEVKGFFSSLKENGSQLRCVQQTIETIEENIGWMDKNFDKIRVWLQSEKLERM

In the case of `COc1ccc(C(=O)O)cc1S(=O)(=O)Nc1ccc(N2CCCCC2)cc1C(F)(F)F`, the AC50 was > 100 µM (inactive).

Take `COc1ccc(C2=NN(c3ccc(C(=O)O)cc3)C(c3ccc(OC)c(OC)c3)C2)cc1` (stereo not drawn): the “activity change, negative = inhibition” value (at 26 µM (top of the series), above what the read-out allows, likely interference) was “inactive”.

`COc1ccc(C(=O)O)cc1S(=O)(=O)Nc1cc(C(F)(F)F)ccc1N1CCCCC1`: the “activity change, negative = inhibition” value (at 50 µM (top of the series)) was “inactive”.

As for `COc1ccc(C(=O)O)cc1S(=O)(=O)Nc1cc(C(F)(F)F)ccc1N1CCOCC1`, the “activity change, negative = inhibition” value (at 50 µM (top of the series)) was “inactive”.

On to `Cc1ccc(S(=O)(=O)Nc2cc(C(F)(F)F)ccc2N2CCCCC2)cc1C(=O)O`, for which the “activity change, negative = inhibition” value (at 50 µM (top of the series)) was “inactive”.

On to `COc1ccc(C(=O)O)cc1S(=O)(=O)Nc1cc(C(F)(F)F)ccc1N1CCN(C(C)=O)CC1`, for which, for the setting “at 50 µM (top of the series)”, the “activity change, negative = inhibition” value was “inactive”.

Consider `COc1ccc(C(=O)Nc2cccc(C(F)(F)F)c2)cc1S(=O)(=O)O`, for which the “activity change, negative = inhibition” value (at 50 µM (top of the series)) is “inactive”.

Regarding `O=C(O)c1cc(F)cc(S(=O)(=O)Nc2cc(C(F)(F)F)ccc2N2CCCCC2)c1`, the “activity change, negative = inhibition” value (at 50 µM (top of the series)) is “inactive”.

In the case of `COc1ccc(C(=O)O)cc1S(=O)(=O)Nc1cccc(N2CCCCC2)c1C(F)(F)F`, the AC50 was > 100 µM (inactive).

Consider `Cc1ccc(C(=O)O)cc1S(=O)(=O)Nc1cc(C(F)(F)F)ccc1N1CCCCC1`, for which the “activity change, negative = inhibition” value (at 50 µM (top of the series)) is “inactive”.

`COc1ccc(C(=O)O)cc1S(=O)(=O)N1CCN(c2ccc(C(F)(F)F)cc2N)CC1`: the AC50 was > 100 µM (inactive).

Take `COc1ccc(C(=O)O)cc1S(=O)(=O)Nc1cc(C(F)(F)F)ccc1N(C)C`: under “at 50 µM (top of the series)”, the “activity change, negative = inhibition” value was “inactive”.

With `O=S(=O)(O)c1ccc(N2N=C(c3ccccc3)CC2c2ccccc2)cc1` (stereo not drawn), the “activity change, negative = inhibition” value (at 26 µM (top of the series)) is “inactive”.

Usually AC50 stands for the concentration at which the activity in the assay is half-maximal.
